This passage reports Platelet aggregation-inhibiting activity and IC50 results from patent US4594342A, “1,5-benzothiazepine derivative” (priority 1984, dated 1986).

In test [1] the test system is rat platelets. In words: Inhibitory effect ex vivo on collagen-induced platelet aggregation of rat platelets after oral administration (Experiment 2). It counts as in vivo. The following applies: 10 mg/kg orally, Sprague-Dawley rats fasted about 20 hours, blood 3 hours after administration. As for the experimental part:
A test compound solution (Dose: 10 mg/kg) was orally administered to Sprague-Dawley rats fasted for about 20 hours. Three hours after administration, blood was collected from the abdominal aorta of the rats. […] The bottom layer was further centrifuged to give platelet-poor plasma ("PPP") as the supernatant solution. PRP was diluted with PPP so that the blood platelet counts were 0.8-1×10^6 /mm^3.

The test system of test [2] is Human platelets. Briefly: Inhibitory effects in vitro on collagen-induced platelet aggregation of human platelets (Experiment 1). It counts as cell-based. The following applies: human PRP, 37° C., read-out: IC50 (concentration of test compound required to induce 50% inhibition of collagen-induced platelet aggregation). An excerpt:
(§1) (Inhibitory effects in vitro on collagen-induced platelet aggregation of rat or human platelets)
(§2) The bottom layer was further centrifuged to give platelet-poor plasma ("PPP") as the supernatant solution. Platelet counts were adjusted to about 0.8-1×10^6 /mm^3 for rat PRP and about 4×10^5 /mm^3 for human PRP by dilution with PPP.

For test [3], the system named is Rat platelets. Briefly: Inhibitory effects in vitro on collagen-induced platelet aggregation of rat platelets (Experiment 1). It counts as cell-based. To be noted: rat PRP, 37° C., read-out: IC50 (concentration of test compound required to induce 50% inhibition of collagen-induced platelet aggregation).
Description: as §1, §2

Where a name gives a salt, the structure may show the parent alone.

Take `CNCCN1C(=O)[C@H](O)[C@H](c2ccc(OC)cc2)Sc2cc(C)ccc21.Cl` (racemic) [(±)-cis-2-(4-methoxyphenyl)-3-hydroxy-5-[2-(N-methylamino)ethyl]-8-methyl-2,3-dihydro-1,5-benzothiazepin-4(5H)-one hydrochloride]: the Platelet aggregation-inhibiting activity result in test [1] is “++ ((++) if the percentage inhibition is not less than 50%)”.

As to `Br.CNCCN1C(=O)[C@H](O)[C@H](c2ccc(C)cc2)Sc2ccccc21` (racemic) [(±)-cis-2-(4-methylphenyl)-3-hydroxy-5-[2-(N-methylamino)ethyl]-2,3-dihydro-1,5-benzothiazepin-4(5H)-one hydrobromide], the IC50 in test [2] turned out to be 0.3 µg/mL.

On to `CNCCN1C(=O)[C@H](O)[C@H](c2ccc(OC)cc2)Sc2cc(O)ccc21` (relative stereo) [(±)-cis-2-(4-methoxyphenyl)-3,8-dihydroxy-5-[2-(N--methylamino)ethyl]-2,3-dihydro-1,5-benzothiazepin-4(5H)--one hydrochloride], for which the Platelet aggregation-inhibiting activity entry in test [1] is listed as “++ ((++) if the percentage inhibition is not less than 50%)”.

In the case of `CNCCN1C(=O)[C@H](OC(C)=O)[C@H](c2ccc(OC)cc2)Sc2cc(C)ccc21` (relative stereo) [(±)-cis-2-(4-methoxyphenyl)-3-acetoxy-5-[2-(N-methylamino)ethyl]-8-methyl-2,3-dihydro-1,5-benzothiazepin-4(5H)-one hydrochloride. 1/2H2 O.1/2C2 H5 OH], the Platelet aggregation-inhibiting activity entry in test [1] is given as “++ ((++) if the percentage inhibition is not less than 50%)”.

In the case of `CNCCN1C(=O)[C@H](OC(C)=O)[C@H](c2ccc(C)cc2)Sc2cc(OC)ccc21` (relative stereo) [(±)-cis-2-(4-methylphenyl)-3-acetoxy-5-[2-(N--methylamino)ethyl]-8-methoxy-2,3-dihydro-1,5-benzothiazepin-4(5H)--one oxalate], the IC50 in test [2] was 0.5 µg/mL.

Take `CNCCN1C(=O)[C@H](OC(C)=O)[C@H](c2ccc(C)cc2)Sc2cc(C)ccc21` (relative stereo) [(±)-cis-2-(4-methylphenyl)-3-acetoxy-5-[2-(N--methylamino)ethyl]-8-methyl-2,3-dihydro-1,5-benzothiazepin-4(5H)--one hydrochloride]: the IC50 in test [3] was found to be 0.5 µg/mL. In addition, the Platelet aggregation-inhibiting activity result in test [1] is “++ ((++) if the percentage inhibition is not less than 50%)”.

Take `CNCCN1C(=O)[C@H](O)[C@H](c2ccc(C)cc2)Sc2cc(OC)ccc21` (relative stereo) [(±)-cis-2-(4-methylphenyl)-3-hydroxy-5-[2-(N--methylamino)ethyl]-8-methoxy-2,3-dihydro-1,5-benzothiazepin-4(5H)--one hydrochloride]: the IC50 in test [3] was 0.3 to 1 µg/mL; in test [2] it was 0.5 µg/mL.

As for `CNCCN1C(=O)[C@H](O)[C@H](c2ccc(C)cc2)Sc2cc(C)ccc21` (relative stereo) [(±)-cis-2-(4-methylphenyl)-3-hydroxy-5-[2-(N--methylamino)ethyl]-8-methyl-2,3-dihydro-1,5-benzothiazepin-4(5H)--one hydrochloride], the IC50 in test [2] is 0.3 µg/mL. Further, the Platelet aggregation-inhibiting activity entry in test [1] was “++ ((++) if the percentage inhibition is not less than 50%)”.

For `CNCCN1C(=O)[C@H](O)[C@H](c2ccc(C)cc2)Sc2cc(C)ccc21` (relative stereo) [(±)-cis-2-(4-methylphenyl)-3-hydroxy-5-[2-(N--methylamino)ethyl]-8-methyl-2,3-dihydro-1,5-benzothiazepin-4(5H)--one sulfate], the IC50 in test [3] is 0.1 to 0.3 µg/mL.

As to `CNCCN1C(=O)[C@H](OC(C)=O)[C@H](c2ccc(OC)cc2)Sc2cc(C)ccc21.O=C(O)C(=O)O` (single isomer, unassigned) [(-)-cis-2-(4-methoxyphenyl)-3-acetoxy-5-[2-(N-methylamino)ethyl]-8-methyl-2,3-dihydro-1,5-benzothiazepin-4(5H)-one oxalate], the Platelet aggregation-inhibiting activity result in test [1] is on record as “++ ((++) if the percentage inhibition is not less than 50%)”.

Turning to `CNCCN1C(=O)[C@H](O)[C@H](c2ccc(OC)cc2)Sc2cc(C)ccc21` (single isomer, unassigned) [(-)-cis-2-(4-methoxyphenyl)-3-hydroxy-5-[2-(N--methylamino)ethyl]-8-methyl-2,3-dihydro-1,5-benzothiazepin-4(5H)--one hydrobromide], in test [1], the Platelet aggregation-inhibiting activity result is “++ ((++) if the percentage inhibition is not less than 50%)”.

For `CNCCN1C(=O)[C@H](O)[C@H](c2ccc(C)cc2)Sc2cc(C)ccc21` (single isomer, unassigned) [(-)-cis-2-(4-methylphenyl)-3-hydroxy-5-[2-(N-methylamino)ethyl]-8-methyl-2,3-dihydro-1,5-benzothiazepin-4(5H)-one hydrochloride hemihydrate], the IC50 in test [3] was 0.1 µg/mL; in test [2], 0.003 to 0.03 µg/mL.
